Non-standard residues stand in square brackets, D forms with d. Residues, ends and D or L forms follow the SMILES beside them. ξ: configuration not given here. *: point of attachment. Phenylacetyl(2,3,4,5,6-F5) = O=C(Cc1c(F)c(F)c(F)c(F)c1F)*; Phenylacetyl(4-F) = O=C(Cc1ccc(F)cc1)*; Hydrocinnamoyl = O=C(CCc1ccccc1)*; Ile(3ξ) = CCC(C)[C@H](N)C(=O)O; PhAc = O=C(Cc1ccccc1)*; Bz = O=C(c1ccccc1)*
How the values were obtained:
[1] = Rheological test of hydrogels (angular frequency sweep); type: physicochemical; settings: angular frequency sweep 0.1 to 100 rad/s, strain=0.8%, 25° C.
Description: In the present invention, Rheological test was performed by Anton Paar rheometer. MTT cell viability assay was performed by Sunrise absorbance microplate reader (DV990/BV4 GDV Programmable MPT reader).
Rheological tests of hydrogels were performed by Anton Paar rheometer. 25 mm parallel plate was used in the experimentation. 400 μL of hydrogels (A) to (R) were placed on the parallel plate. Angular frequency sweep test: measurement range (frequency 0.1 to 100 rad/s, strain=0.8%) is 13 points per 10 rounds. Sweep model is “logarithm (log)” and the operation temperature is 25° C.
In FIG. 3, G′ represents storage modulus, and G″ represents loss modulus. The higher G′ and G″ are, the better stability the hydrogel is.

[2] = Phase inversion temperature (Tgel-sol) test of hydrogels; type: physicochemical; settings: heated 2° C./min until hydrogel began to flow
Description: Hydrogels (A) to (R) were obliquely placed in water bath while a beaker including water and a thermometer was also placed in the water bath. The hydrogels were heated (2° C./min) until such hydrogels began to flow (the gel phase was changed to the sol phase). The inversion temperatures when the hydrogels began to flow were recorded, and such temperatures were the phase inversion temperatures of hydrogels.

[3] = system: Hela cell; experiment: Wound healing assay, Hela cell; type: cell-based; settings: medium with 1 wt % of hydrogel
Description: Various cells were washed with PBS (phosphate buffer) twice and were suspended in a T-75 tissue culture flask. 0.25% trypsin containing 0.1% EDTA was added and then the cells were re-suspended in 5 mL of complete medium. 30000 cells (in 3 mL of medium) were placed in each vial on a 6-well plate to form a fusion monolayer. […] 2 mL of PBS was used twice to remove the floating cells, and was then replaced with 3 mL of complete medium. The image taken at 0 hour was used as a reference point. […] The images at different hours were taken at an appropriate region. Control: no compound added.

[4] = system: CTX TNA2 cell; experiment: Wound healing assay, CTX TNA2 cell; type: cell-based; settings: medium with 1 wt % of hydrogel, versus Control
Description: Various cells were washed with PBS (phosphate buffer) twice and were suspended in a T-75 tissue culture flask. 0.25% trypsin containing 0.1% EDTA was added and then the cells were re-suspended in 5 mL of complete medium. 30000 cells (in 3 mL of medium) were placed in each vial on a 6-well plate to form a fusion monolayer. After the adhesion for 24 hours, the cell monolayer was scratched by a p200 pipet tip to create a wound. 2 mL of PBS was used twice to remove the floating cells, and was then replaced with 3 mL of complete medium. The image taken at 0 hour was used as a reference point. The medium was replaced with 3 mL of medium containing 1 wt % of hydrogel and the plate was incubated at 37° C. and 5% CO2 for 24 hours. The images at different hours were taken at an appropriate region. Control: no compound added.

[5] = MTT cell viability assay, Hela cell; type: cell-based; settings: human, HeLa cells, hydrogel up to 500 μM
Description: (§1) The bio-compatibility of the hydrogels prepared from the different peptide materials was measured by MTT cell viability assay.
(§2) MTT cell viability assay was performed by Sunrise absorbance microplate reader (DV990/BV4 GDV Programmable MPT reader). Various cells were seeded in a 24-well plate containing 0.5 mL medium (DMEM) with 10% fetal bovine serum (FBS) and 1% penicillin. In each well, the cell concentration was 50000 cells and cells were cultured for 24 hours. After seeding the cells, hydrogels with the different concentrations ([…]) were added. The medium in each well was replaced with the flesh medium containing 0.5 mL of MTT reagent (4 mg mL^−1) after 24 and 48 hours. After an additional 4 hours, the medium containing MTT reagent was removed and DMSO (0.5 mL/well) was added to dissolve formazan crystals. The cells in the 24-well plate were transferred to a 96-well plate. The optical densities of such obtained solutions were measured at 595 nm by Sunrise absorbance microplate reader (DV990/BV4 GDV Programmable MPT reader).
(§3) The untreated cells were used as a comparative example. The cell viability was calculated based on the following equation:
(§4) Cell viability(%)=ODsample/ODcomparative example

[6] = system: Hela cell; experiment: MTT cell viability assay, Hela cell; type: cell-based; settings: Homo sapiens, read-out: IC50 inhibition concentration
Description: as §1, §2, §3, §4

[7] = system: MCF-7 cell; experiment: MTT cell viability assay, MCF-7 cell; type: cell-based; settings: Homo sapiens, MCF7, read-out: IC50 inhibition concentration
Description: as §1, §2, §3, §4

[8] = MTT cell viability assay, MCF-7 cell; type: cell-based; settings: human, MCF-7 cells, hydrogel up to 500 μM
Description: as §1, §2, §3, §4

[9] = system: CTX TNA2 cell; experiment: MTT cell viability assay, CTX TNA2 cell; type: cell-based; settings: read-out: IC50 inhibition concentration
Description: as §1, §2, §3, §4

[10] = MTT cell viability assay, CTX TNA2 cell; type: cell-based; settings: rat, CTX TNA2 cells, hydrogel up to 500 μM
Description: as §1, §2, §3, §4

[11] = State of hydrogels at 37° C. and 4° C. (TEM images); type: physicochemical
Description: The material, technique and general process in the present invention are suitable for the following examples. All used chemical reagents and solutions can be obtained from suppliers. ^1H and ^13C spectrums were measured by Bruker DRX-300. LC-MS was measured by MICROMASS Q-Tof. TEM was measured by Hitachi HT7700 Bio-transmission electron microscope.

Row | SMILES | storage modulus (G′) [1] | phase inversion temperature Tgel-sol [2] | other results
1 | C[C@H](NC(=O)[C@H](Cc1ccccc1)NC(=O)Cc1c(F)c(F)c(F)c(F)c1F)C(=O)O [hydrogel (E), PFB-Phe-Ala] | 4×10^3 Pa | 48 °C | wound healing after 48 hours [3]: healed completely
2 | CCC(C)[C@H](NC(=O)Cc1ccc(F)cc1)C(=O)N[C@@H](CCCCN)C(=O)N[C@H](C(=O)N[C@@H](C)C(=O)N[C@H](C(=O)O)C(C)C)C(C)C (stereo partly drawn) [hydrogel (N), 4-Fluorophenylacetic Acid-Ile-Lys-Val-Ala-Val] ({Phenylacetyl(4-F)}-[Ile(3ξ)]KVAV-OH) | 1×10^4 Pa | 66 °C | 
3 | CCC(C)[C@H](NC(=O)CCc1ccccc1)C(=O)N[C@@H](CCCCN)C(=O)N[C@H](C(=O)N[C@@H](C)C(=O)N[C@H](C(=O)O)C(C)C)C(C)C (stereo partly drawn) [hydrogel (Q), 3-Phenylpropionic Acid-Ile-Lys-Val-Ala-Val] (Hydrocinnamoyl-[Ile(3ξ)]KVAV-OH) | 1×10^4 Pa | > 90 °C | 
4 | O=C(O)CNC(=O)[C@H](Cc1ccccc1)NC(=O)Cc1c(F)c(F)c(F)c(F)c1F [hydrogel (B), PFB-Phe-Gly] | 10^4 Pa | 48 °C | wound healing after 48 hours [3]: healed completely
5 | O=C(Cc1c(F)c(F)c(F)c(F)c1F)N[C@@H](Cc1ccccc1)C(=O)O [hydrogel (A), PFB-Phe] | 2×10^3 Pa | 56 °C | wound healing after 48 hours [3]: healed completely
6 | CCC(C)[C@H](NC(=O)[C@H](Cc1ccccc1)NC(=O)Cc1c(F)c(F)c(F)c(F)c1F)C(=O)N[C@@H](CCCCN)C(=O)N[C@H](C(=O)N[C@@H](C)C(=O)N[C@H](C(=O)O)C(C)C)C(C)C (stereo partly drawn) [hydrogel (R), PFB-Phe-Ile-Lys-Val-Ala-Val] ({Phenylacetyl(2,3,4,5,6-F5)}-F[Ile(3ξ)]KVAV-OH) | 1.0×10^3 Pa | 40 °C | 
7 | O=C(Cc1c(F)c(F)c(F)c(F)c1F)N[C@@H](Cc1ccccc1)C(=O)N[C@@H](Cc1ccccc1)C(=O)O [hydrogel (D), PFB-Phe-Phe] | 2×10^4 Pa | 45 °C | 
8 | CCC(C)[C@H](NC(=O)Cc1c(F)c(F)c(F)c(F)c1F)C(=O)N[C@@H](Cc1ccccc1)C(=O)O (stereo partly shown) [hydrogel (H), PFB-Ile-Phe] | 1×10^4 Pa | 71 °C | 
9 | CCC(C)[C@H](NC(=O)Cc1c(F)c(F)c(F)c(F)c1F)C(=O)N[C@@H](CCCCN)C(=O)N[C@H](C(=O)N[C@@H](C)C(=O)N[C@H](C(=O)O)C(C)C)C(C)C (stereo partly drawn) [hydrogel (M), PFB-Ile-Lys-Val-Ala-Val] ({Phenylacetyl(2,3,4,5,6-F5)}-[Ile(3ξ)]KVAV-OH) | 1×10^3 Pa | 42 °C | 
10 | CCC(C)[C@H](NC(=O)c1ccccc1)C(=O)N[C@@H](CCCCN)C(=O)N[C@H](C(=O)N[C@@H](C)C(=O)N[C@H](C(=O)O)C(C)C)C(C)C (stereo partly drawn) [hydrogel (O), Benzoic Acid-Ile-Lys-Val-Ala-Val] (Bz-[Ile(3ξ)]KVAV-OH) | 6×10^3 Pa | 62 °C | 
11 | O=C(Cc1c(F)c(F)c(F)c(F)c1F)N[C@@H](Cc1ccc(O)cc1)C(=O)N[C@@H](Cc1ccccc1)C(=O)O [hydrogel (C), PFB-Tyr-Phe] | 5×10^3 Pa | 43 °C | healing effect [4]: better than that of Control; viability [5]: ~100%; IC50 [6]: > 500 µM; IC50 [7]: > 500 µM; viability [8]: ~100%; wound healing after 48 hours [3]: healed completely; IC50 [9]: > 500 µM; viability [10]: ~100%
12 | CC(C)C[C@@H](NC(=O)Cc1c(F)c(F)c(F)c(F)c1F)C(=O)N[C@H](Cc1ccccc1)C(=O)O [hydrogel (J), PFB-D-L-D-F] | 7×10^2 Pa | 69 °C | 
13 | CC(C)[C@H](NC(=O)[C@H](Cc1ccccc1)NC(=O)Cc1c(F)c(F)c(F)c(F)c1F)C(=O)O [hydrogel (F), PFB-Phe-Val] | 3×10^3 Pa | 46 °C | wound healing after 48 hours [3]: healed completely
14 | CC(C)C[C@H](NC(=O)Cc1c(F)c(F)c(F)c(F)c1F)C(=O)N[C@@H](Cc1ccccc1)C(=O)O [hydrogel (I), PFB-Leu-Phe] | 2×10^3 Pa | 55 °C | state of hydrogel at 4° C. [11]: liquid; state of hydrogel at 37° C. [11]: colloidal state
15 | O=C(Cc1ccc(F)cc1)N[C@@H](Cc1ccccc1)C(=O)N[C@@H](Cc1ccccc1)C(=O)O [hydrogel (K), 4-Fluorobenzyl-Phe-Phe] | 6×10^3 Pa | 46 °C | 
16 | CCC(C)[C@H](NC(=O)Cc1ccccc1)C(=O)N[C@@H](CCCCN)C(=O)N[C@H](C(=O)N[C@@H](C)C(=O)N[C@H](C(=O)O)C(C)C)C(C)C (stereo partly drawn) [hydrogel (P), Phenylacetic Acid-Ile-Lys-Val-Ala-Val] (PhAc-[Ile(3ξ)]KVAV-OH) | 6×10^3 Pa | 65 °C | 
17 | CC(C)[C@H](NC(=O)Cc1c(F)c(F)c(F)c(F)c1F)C(=O)N[C@@H](Cc1ccccc1)C(=O)O [hydrogel (G), PFB-Val-Phe] | 6×10^4 Pa | 72 °C | 
18 | O=C(Cc1c(F)c(F)c(F)c(F)c1F)NCC(=O)N[C@@H](Cc1ccccc1)C(=O)N[C@@H](Cc1ccccc1)C(=O)O [hydrogel (L), PFB-Gly-Phe-Phe] | 4×10^2 Pa | 38 °C | state of hydrogel at 4° C. [11]: liquid; state of hydrogel at 37° C. [11]: colloidal state

— patent US20160009763A1, “PEPTIDE MOLECULAR MATERIALS” (National Chiao Tung University, priority 2014, published 2016)
